The nature of the series: Storage stability of DNT-Oxal crystal forms (polymorphic form by XRD). The format is physicochemical. The note with it: stored at room temperature for 11 months; for Crystal form after the storage: crystal form before vs after the storage, oxalate. As to the method:
Crystal forms of DNT-Oxal were stored at room temperature for 11 months. […] The forms of DNT-Oxal were identified using a Scintag X-ray powder diffractometer model X'TRA with a Cu-tube solid state detector. The sample holder was a round standard aluminum sample holder with rough zero background quartz plate with a cavity having a diameter of 25 mm and a depth of 0.5 mm. The scanning parameters were as follows: a range of 2° to 40° 2θ; a continuous scan mode, and a step size of 0.05° at a rate of 3°/minute.

With `CN(C)CC[C@H](Oc1cccc2ccccc12)c1cccs1.O=C(O)C(=O)O` [Form II, (S)-(+)-N,N-Dimethyl-3-(1-naphthalenyloxy)-3-(2-thienyl)propanamine oxalate], the “Polymorphic stability on storage” value is given as “polymorphically stable” and the “Crystal form after the storage” value was “Form II”.
As for `CN(C)CC[C@H](Oc1cccc2ccccc12)c1cccs1.O=C(O)C(=O)O` [Form III, (S)-(+)-N,N-Dimethyl-3-(1-naphthalenyloxy)-3-(2-thienyl)propanamine oxalate], the “Polymorphic stability on storage” value is on record as “polymorphically stable” and the “Crystal form after the storage” value is listed as “Form III”.

For the origin of these results see patent publication US7399871B2, “Crystal forms of (S)-(+)-N,N-dimethyl-3-(1-naphthalenyloxy)-3-(2-thienyl)propanamine oxalate and the preparation thereof” (Teva Pharmaceutical Industries Ltd., priority 2005, dated 2008).
